This test has as its system immobilized GST-tagged bait protein domains. Put plainly: ProP-PD phage selections (HD2 P8, sublibraries, HD2 P3, HD1 P8) with NGS and confidence level. The following applies: for HD confidence / HD mean counts / HD count proportions: HD1 P8 library; for HD mean counts: mean NGS counts over replicate selections; for HD count proportions: mean proportion of NGS counts. The class given is binding, human.

The mark [1] stands for this setting: HD2 library, bait PDCD6IP_Alix-V-domain__Q8WUM4_360_702, benchmark motif instance, in_library_check FALSE, in_library_coverage 0.
Setting [2] is: bait MAP1LC3A_ATG8 (Q9H492 2-121), HD2 library, benchmark motif instance recovered in the ProP-PD selection (TRUE/FALSE).
Where [3] appears, read: bait KPNA4_Arm (O00629 68-487), HD2 library, benchmark motif instance recovered in the ProP-PD selection (TRUE/FALSE).
[4] abbreviates: bait SIN3A_PAH__Q96ST3_295_383, HD2 library, whether the validated benchmark motif instance was recovered in the ProP-PD selection (TRUE/FALSE).
Where [5] appears, read: HD2 library, bait SUMO1_SUMO__P63165_1_101, known motif instance of the benchmarking set found (TRUE) or not found (FALSE) among selected peptides.
Where [6] appears, read: library HD2, bait EPS15_EH__P42566_121_215, whether the validated benchmark motif instance was recovered in the ProP-PD selection (TRUE/FALSE).
[7] abbreviates: bait CALM1_EF-hand__P0DP23_2_149, library HD2, benchmarking set of validated motif instances, TRUE = motif instance recovered in the ProP-PD selection.
[8] abbreviates: bait OXSR1___O95747_434_527, HD2 library, whether the validated benchmark motif instance was recovered in the ProP-PD selection (TRUE/FALSE).
The mark [9] stands for this setting: bait AP2B1_adaptin__P63010_700_937, confidence level (4 = High, 2-3 = Medium, 1 = Low).
[10] abbreviates: bait AP2B1_adaptin__P63010_700_937.
Setting [11] is: library HD2, bait VASP_EVH1__P50552_1_114, validated benchmark motif instance, in_library_check TRUE, TRUE/FALSE = instance recovered in ProP-PD selection.
[12] abbreviates: library HD2, bait USP7_MATH-TRAF__Q93009_53_206, validated benchmark motif instance, in_library_check TRUE, TRUE/FALSE = instance recovered in ProP-PD selection.
[13] abbreviates: library HD2, bait WDR5_WD_1234567_P61964_21_334, validated benchmark motif instance, in_library_check TRUE, TRUE/FALSE = instance recovered in ProP-PD selection.
[14] abbreviates: library HD2, bait KLC1_TPR__Q07866_203_497, whether the validated benchmark motif instance was recovered in the ProP-PD selection (TRUE/FALSE).
The mark [15] stands for this setting: HD2 library, bait TNKS_TANK-peptide-bind__O95271_174_649, known motif instance of the benchmarking set found (TRUE) or not found (FALSE) among selected peptides.
Where [16] appears, read: bait SUMO1_SUMO__P63165_1_101, HD2 library, confidence level (1-4) of best matching selected peptide.
The mark [17] stands for this setting: bait SUMO1_SUMO__P63165_1_101, HD2 library, specificity score of best matching selected peptide.
The mark [18] stands for this setting: bait SUMO1_SUMO__P63165_1_101, HD2 library, whether the validated benchmark motif instance was recovered in the ProP-PD selection (TRUE/FALSE).
Where [19] appears, read: HD2 library, bait CALM1_EF-hand__P0DP23_2_149, benchmark motif instance, in_library_check FALSE, in_library_coverage 0.

As for -----MSLYPSLEDLKVDK [SDCBP 3-7], the motif_found result under setting [1] is given as “FALSE”.

As to --MELNSLLILLEAAEYLERRDREA [MXD4 6-16], the motif_found entry (HD2 library, bait SIN3A_PAH__Q96ST3_295_383, benchmark motif instance, in_library_check FALSE, in_library_coverage 0) is on record as “FALSE”. As for -MDAATLTYDTLRFAEFED, the motif_found entry by setting is: under setting [2], “FALSE”; (bait MAP1LC3B_ATG8 (Q9GZQ8 2-119), HD2 library, benchmark motif instance recovered in the ProP-PD selection (TRUE/FALSE)) “FALSE”. As to -MNSPGGRGKKKGSGGASNPV, the motif_found entry under setting [3] is on record as “FALSE”. AAAAYVDHFAAECLVSMSSRAVVH: the motif_found entry under setting [4] was “FALSE”.

Consider AAALPQPEVILLDSDLDEPIDL, for which the motif_found result under setting [5] is listed as “FALSE”. With AAAVRMNIQMLLEAADYLERREREA, the motif_found entry under setting [4] is “FALSE”.

Take AAGPSVASSTNPFQTN: for the setting “library HD2, bait EPS15_EH__P42566_121_215, best matching peptide”, the best_specificity stood at 1. Also, the best_confidence (library HD2, bait EPS15_EH__P42566_121_215, confidence level of best matching peptide (4 High, 2-3 Medium, 1 Low)) was 3. Moreover, the motif_found result under setting [6] is on record as “TRUE”. Consider AAQATGTTNPFLL------, for which the motif_found entry under setting [6] was “FALSE”. The substance AASVNANFAHFDNFPK displayed an HD2_endomembrane confidence (bait AP2B1_adaptin__P63010_700_937, HD2 P8 endomembrane sublibrary, confidence level (4 = High, 2-3 = Medium, 1 = Low)) of 4. Under “library HD2, bait YAP1_WW_1_P46937_169_207, confidence level of best matching selected peptide (4 High, 2-3 Medium, 1 Low)”, ADTPPPAYLPPEDPMT registered a best_confidence of 2. Moreover, for the setting “library HD2, bait YAP1_WW_1_P46937_169_207, specificity score of best matching selected peptide”, the best_specificity was 1. In addition, the motif_found result (library HD2, bait YAP1_WW_1_P46937_169_207, validated benchmark motif instance, in_library_check TRUE, TRUE/FALSE = instance recovered in ProP-PD selection) is “TRUE”.

Take AEERVVVISSSE: the motif_found result under setting [5] is listed as “FALSE”. On to AESSQAVMSLPKLQQV, for which the HD2 confidence (bait ANKRA2_Ank__Q9H9E1_142_313, library HD2 P8) is on record as 4. Consider AFIIWLARRLKKGKK [SELL], for which, under setting [7], the motif_found entry was “FALSE”. Consider AGVFKMGRFQVSVAADGAQ, for which the motif_found result under setting [8] is “FALSE”. Substance AIPWAAFPAVSGVHLS gave an HD confidence under setting [9] of 4. Under setting [10], the HD mean counts came out at 2.25 and the HD count proportions amounted to 0.0009118. Besides, the HD2 confidence (bait AP2B1_adaptin__P63010_700_937, HD2 P8 library, confidence level (4 = High, 2-3 = Medium, 1 = Low)) came to 3. On to AKNGAASKRAFKQSPPAVPALGAGVKKRRHGDEDTYY, for which the motif_found result under setting [3] is “FALSE”. Take AMICYRKKRKGKLTLEDQAT: the motif_found result under setting [3] was “FALSE”. Consider APLEEEIFPSPPPPPEEEG, for which, under setting [11], the motif_found entry was “FALSE”. Regarding APPVSGTFKFNTDAAEFIPQEKKNSGL, the motif_found result (bait PABP-B_PABP__P11940_544_623, HD2 library, whether the validated benchmark motif instance was recovered in the ProP-PD selection (TRUE/FALSE)) is “FALSE”. Regarding AQCSTSDSACRISPGQ, the best_confidence (library HD2, bait USP7_MATH-TRAF__Q93009_53_206, confidence level of best matching selected peptide (4 High, 2-3 Medium, 1 Low)) is 2. Where the note is “library HD2, bait USP7_MATH-TRAF__Q93009_53_206, specificity score of best matching selected peptide”, this substance returned a best_specificity of 1. Besides, the motif_found result under setting [12] is recorded as “TRUE”.

With AQSMVSGSHCTPPPPY, the motif_found result (bait NEDD4_WW_4 (P46934 890-928), HD2 library, benchmark motif instance recovered in the ProP-PD selection (TRUE/FALSE)) is listed as “TRUE”. Besides, where the note is “bait NEDD4_WW_4 (P46934 890-928), HD2 library, confidence level (1-4) of best matching peptide”, the best_confidence came out at 4. The best_specificity (bait NEDD4_WW_4 (P46934 890-928), HD2 library, specificity score of best matching peptide) is 0.99. As for AQSPLPSTNPFQPNGLAPG, the motif_found result under setting [6] is “FALSE”. On to “ARKEVIRNKIRAIGKMARVFSVLR,VIRNKIRAIGKMARVFS,KEVIRNKIRAIGKMARVFS [PPP3CA]”, for which the motif_found entry under setting [7] is “FALSE”.

In the case of ARTKQ, the motif_found result under setting [13] was “FALSE”. For the substance ARTKQTA, under setting [13], the motif_found result was “FALSE”. With ASDDSNGLEWENDFVSAEMDDNGN, the motif_found result under setting [14] was “FALSE”. With ASFTEDAPRPPVPGEEGELVST, under setting [15], the motif_found entry is on record as “FALSE”. Regarding ASSATRELDELMASLSDFKIQGL, the motif_found entry (bait PTK2_Focal-AT__Q05397_891_1050, HD2 library, whether the validated benchmark motif instance was recovered in the ProP-PD selection (TRUE/FALSE)) is recorded as “FALSE”. Regarding ASTS, the motif_found result under setting [12] is recorded as “FALSE”. Consider ATGSDSSGVIDLTMDDEESG, for which, under setting [5], the motif_found result is reported as “FALSE”. In the case of ATLDALLAALRRIQRAD, for the setting “library HD2, bait CALM1_EF-hand__P0DP23_2_149, motif instance NOT in library (in_library_check FALSE, in_library_coverage 0)”, the motif_found entry was “FALSE”.

ATQCDPEEIIVLSDSD-------: the motif_found entry under setting [5] is “FALSE”. Turning to AVPSVPSTDWEDGDLTDTVSGP, the motif_found result under setting [14] is listed as “FALSE”.

As to CNSDRVLKRSAEGSNPPKPLKKLRFDIEGSDE, under setting [3], the motif_found result was “FALSE”. In the case of CRRPLSRTRNPADGIPAPESSS, the motif_found result under setting [15] was “FALSE”. With DAPIILSDSEEEEMIILEPDKNPKK, under setting [5], the motif_found result is “FALSE”. DAQAGKEPGGSRAHSSHLK: the motif_found result under setting [12] is “FALSE”. As for DATLCSGRFTISTLLS, the best_confidence (bait OXSR1___O95747_434_527, HD2 library, confidence level (1-4) of best matching selected peptide) is listed as 2. Besides, for the setting “bait OXSR1___O95747_434_527, HD2 library, specificity score of best matching selected peptide”, the best_specificity came out at 1. Under setting [8], the motif_found result is listed as “TRUE”.

As to DDDSSKDSGFTIVSPL, the motif_found result under setting [2] was “TRUE”. The substance also registered a best_confidence (bait MAP1LC3A_ATG8 (Q9H492 2-121), HD2 library, confidence level (1-4) of best matching peptide) of 2. Moreover, the best_specificity (bait MAP1LC3A_ATG8 (Q9H492 2-121), HD2 library, specificity score of best matching peptide) turned out to be 1. Consider DDDVLIVYELTPTAEQ, for which the best_confidence under setting [16] is 2. In addition, the best_specificity under setting [17] is listed as 1. The motif_found result under setting [18] was “TRUE”. In the case of “DDGLDEAFSRLAQSRT,WELDDGLDEAFSRLAQSRTNPQVLD [LDLRAP1]”, the motif_found entry (bait AP2B1_adaptin__P63010_700_937, library HD2, benchmarking set of validated motif instances, TRUE = motif instance recovered in the ProP-PD selection) was “TRUE”. Take “DDIMPAVKTVIRSIRILKFLVAKRKF [KCNQ4 524-549]”: the motif_found result under setting [19] is “FALSE”. Take DDPDAAELNPFGDPDSEEP: the motif_found entry under setting [6] was “FALSE”. DEIVDLTCESLEPVVV showed a best_confidence under setting [16] of 2. Besides, the best_specificity under setting [17] is 1. The motif_found result under setting [18] is on record as “TRUE”. Substance DFPPPPPDLEQLRLTD registered a best_confidence (library HD2, bait VASP_EVH1__P50552_1_114, confidence level of best matching selected peptide (4 High, 2-3 Medium, 1 Low)) of 2. The substance also displayed a best_specificity (library HD2, bait VASP_EVH1__P50552_1_114, specificity score of best matching selected peptide) of 1. Also, under setting [11], the motif_found entry is given as “TRUE”. Regarding DGGTTFEHLWSSLEPD, under “bait MDM2_p53-binding-domain (Q00987 17-125), HD2 library, benchmark motif instance recovered in the ProP-PD selection (TRUE/FALSE)”, the motif_found entry is recorded as “FALSE”. For DGNLYPRLYPELSQYMGLS [SDCBP 49-53], under setting [1], the motif_found result is listed as “FALSE”. Under setting [9], DGTISVPETWAKFSND had an HD confidence of 4. Further, under setting [10], the HD mean counts was determined as 1.5 and the HD count proportions is given as 0.0006297. With DIDQMFSTLLGEMDLLTQSLGVDT, the motif_found result (HD2 library, bait TLN1_PTB__Q9Y490_309_401, known motif instance of the benchmarking set found (TRUE) or not found (FALSE) among selected peptides) is recorded as “FALSE”. On to “DKAITDRVILLQKVIRGFKDRSNFLKLKNA [MYO7A 748-763]”, for which the motif_found result under setting [19] is on record as “FALSE”. Consider “DKEDDQEHPSEKQPSGAESGTLARASLALPTSSLSRTASQSSSHRGWEILRQNTLGHLNLGLNLSEGDGEE [TRPV5]”, for which the motif_found result under setting [7] is recorded as “FALSE”. DLRKIPDSNPFDATAGYRS: the motif_found result under setting [6] is “FALSE”.

With DNEKECIIVWEKK, the motif_found entry under setting [5] is on record as “FALSE”. On to DPSMDKAAVKIQAAFKGYKVRKEMKQQEGPM [OBSCN], for which, under setting [7], the motif_found entry was “FALSE”.

Source of the values: PMC8769072, “Proteome‐scale mapping of binding sites in the unstructured regions of the human proteome” (Molecular Systems Biology, 2022).
